Results taken from article PMC6017631, “The Effect of Combining Natural Terpenes and Antituberculous Agents against Reference and Clinical Mycobacterium tuberculosis Strains” (Molecules : A Journal of Synthetic Chemistry and Natural …, 2018).
Converted amounts (≈) assume the structure as drawn. Like-named read-outs stand apart in the source and are kept apart here.

How the values were obtained:
[1] = tested on: clinical isolate 12331 (IRE resistant); assay: microbe, parasite or virus in culture; format: cell-based, Mycobacterium tuberculosis
[2] = tested on: clinical isolate 85/13 (Beijing, SIRE resistant); assay: microbe, parasite or virus in culture; format: cell-based, Mycobacterium tuberculosis
[3] = tested on: clinical isolate 126 (INH resistant); assay: microbe, parasite or virus in culture; format: cell-based, Mycobacterium tuberculosis
M. tuberculosis H37Rv = conditions: H37Rv and some Mtb drug-resistant clinical isolates ref 2, 60, 61, cited from earlier work
[4] = compounds tested separately, 12331
[5] = compounds tested separately, 85/13
[6] = compounds tested separately, 126
[7] = Mycobacterium tuberculosis, read-out: MIC for EMB in a Presence of Terpenes
[8] = Mycobacterium tuberculosis, read-out: MIC for INH in a Presence of Terpenes
[9] = Mycobacterium tuberculosis, read-out: MIC for RMP in a Presence of Terpenes

CC(C)=CCC[C@](C)(O)C1CC=C(C)CC1 (stereo partly shown) [bisabolol]
MIC [1, 4]: 256 µg/mL (≈ 1150 µM) | MIC [2, 5]: 128 µg/mL (≈ 576 µM) | MIC [3, 6]: 32 µg/mL (≈ 144 µM)

CC[C@@H](CO)NCCN[C@@H](CC)CO [EMB, ethambutol, reference compound]
MIC ([1]; Mycobacterium tuberculosis): 16 µg/mL (≈ 78.3 µM) | MIC ([2]; Mycobacterium tuberculosis): 16 µg/mL (≈ 78.3 µM) | MIC ([3]; Mycobacterium tuberculosis): 0.25 µg/mL (≈ 1.22 µM)

CC(=O)c1c(O)c(C)c(O)c2c1OC1=CC(=O)C(C(C)=O)C(=O)C12C (stereo not shown) [usnic acid]
FICI (M. tuberculosis H37Rv; with rifampicin): 0.25–0.38

CO[C@H]1/C=C/O[C@@]2(C)Oc3c(C)c(O)c4c(O)c(c(/C=N/N5CCN(C)CC5)c(O)c4c3C2=O)NC(=O)/C(C)=C\C=C\[C@H](C)[C@H](O)[C@@H](C)[C@@H](O)[C@@H](C)[C@H](OC(C)=O)[C@@H]1C [RMP, rifampicin, reference compound]
MIC ([1]; Mycobacterium tuberculosis): 256 µg/mL (≈ 311 µM) | MIC ([2]; Mycobacterium tuberculosis): 128 µg/mL (≈ 156 µM) | MIC ([3]; Mycobacterium tuberculosis): 0.25 µg/mL (≈ 0.304 µM)

CCCCCCCC/C=C\CCCCCCCC(=O)O [oleic acid]
FICI (M. tuberculosis H37Rv; in combination with isoniazid, rifampicin and ethambutol): 0.09–0.36

CC1=CCC2CC1C2(C)C (stereo not drawn) [α-pinene]
MIC ([1]; Mycobacterium tuberculosis): > 512 µg/mL | MIC [1, 7]: 16 µg/mL | MIC [1, 8]: 16 µg/mL | MIC [1, 9]: 256 µg/mL | MIC ([2]; Mycobacterium tuberculosis): 512 µg/mL (≈ 3760 µM) | MIC [2, 7]: 16 µg/mL | MIC [2, 8]: 16 µg/mL | MIC [2, 9]: 128 µg/mL | MIC ([3]; Mycobacterium tuberculosis): 128 µg/mL (≈ 940 µM) | MIC [3, 7]: 0.25 µg/mL | MIC [3, 8]: 0.5 µg/mL | MIC [3, 9]: 0.25 µg/mL

Cc1cc(O)c2c(c1)C(=O)C=CC2=O [7-methyljuglone]
FICI (M. tuberculosis H37Rv; in combination with isoniazid): 0.2 | FICI (M. tuberculosis H37Rv; with rifampicin): 0.5

C=CC(=C)CCC=C(C)C [myrcene]
MIC ([1]; Mycobacterium tuberculosis): 512 µg/mL (≈ 3760 µM) | MIC [1, 7]: 16 µg/mL | MIC [1, 8]: 16 µg/mL | MIC [1, 9]: 256 µg/mL | MIC ([2]; Mycobacterium tuberculosis): > 512 µg/mL | MIC [2, 7]: 16 µg/mL | MIC [2, 8]: 16 µg/mL | MIC [2, 9]: 128 µg/mL | MIC ([3]; Mycobacterium tuberculosis): 256 µg/mL (≈ 1880 µM) | MIC [3, 7]: 0.25 µg/mL | MIC [3, 8]: 0.5 µg/mL | MIC [3, 9]: 0.25 µg/mL

(S)-limonene
MIC [1, 4]: 512 µg/mL | MIC [2, 5]: >512 µg/mL | MIC [3, 6]: 256 µg/mL

C=C(C)[C@H]1CC=C(C)CC1 [(R)-limonene]
MIC [1, 4]: 128 µg/mL (≈ 940 µM) | MIC [2, 5]: 256 µg/mL (≈ 1880 µM) | MIC [3, 6]: 128 µg/mL (≈ 940 µM)

NNC(=O)c1ccncc1 [INH, isoniazid, reference compound]
MIC ([1]; Mycobacterium tuberculosis): 16 µg/mL (≈ 117 µM) | MIC ([2]; Mycobacterium tuberculosis): 16 µg/mL (≈ 117 µM) | MIC ([3]; Mycobacterium tuberculosis): 0.5 µg/mL (≈ 3.65 µM)

C=C[C@]1(C)CC[C@@H](C(=C)C)C[C@H]1C(=C)C [β-elemene]
MIC [1, 4]: 256 µg/mL (≈ 1250 µM) | MIC [2, 5]: >512 µg/mL | MIC [3, 6]: 256 µg/mL (≈ 1250 µM)

C=C1CCC2(C(C)C)CC12 (stereo not shown) [sabinene]
MIC ([1]; Mycobacterium tuberculosis): > 512 µg/mL | MIC [1, 7]: 16 µg/mL | MIC [1, 8]: 16 µg/mL | MIC [1, 9]: 256 µg/mL | MIC ([2]; Mycobacterium tuberculosis): 512 µg/mL (≈ 3760 µM) | MIC [2, 7]: 16 µg/mL | MIC [2, 8]: 16 µg/mL | MIC [2, 9]: 128 µg/mL | MIC ([3]; Mycobacterium tuberculosis): 128 µg/mL (≈ 940 µM) | MIC [3, 7]: 0.25 µg/mL | MIC [3, 8]: 0.5 µg/mL | MIC [3, 9]: 0.25 µg/mL
